Measured values reported in ChEMBL document CHEMBL2046394, “Isolation and characterization of α,β-unsaturated γ-lactono-hydrazides from Streptomyces sp” (J Nat Prod, 2012).
Active and inactive are the calls of the source. No cut-off for these calls is given here.

What was measured:
[1] = test system: Micrococcus luteus; assay: Antibacterial activity against Micrococcus luteus ATCC 10240 by disk inhibition zone method; assay type: functional, organism-based
[2] = test system: Bacillus subtilis; assay: Antibacterial activity against Bacillus subtilis ATCC 6633 by disk inhibition zone method; assay type: functional, organism-based
[3] = test system: Escherichia coli; assay: Antibacterial activity against Escherichia coli ATCC 25922 by disk inhibition zone method; assay type: functional, organism-based
[4] = Cytotoxicity against human MDA231 cells assessed as growth inhibition after 72 hrs; assay type: functional, cell-based; details: MDA-MB-231, 72 h
[5] = test system: Caco-2; assay: Cytotoxicity against human Caco2 cells by MTT assay; assay type: functional, cell-based

Compound | Activity [1] | Activity [2] | Activity [3] | IC50 [4] | IC50 [5]
CCCC/C=C\N(NC(C)=O)C(=O)CCC1=CCOC1=O [GERALCIN B] | inactive | inactive | inactive | 5 µM | –
COc1cc(/C=C/C(=O)N(CCc2c[nH]c3ccc(O)cc23)N(CCc2c[nH]c3ccc(O)cc23)C(=O)/C=C/c2ccc(O)c(OC)c2)ccc1O [MONTAMINE] | – | – | – | – | 43.9 µM
O=C(O)CCC1=CCOC1=O | inactive | inactive | inactive | – | –
CCCCCCN(NC(=O)CO)C(=O)CCC1=CCOC1=O | inactive | inactive | inactive | – | –
